Test system: Mouse Skin Phosphodiesterase (cyclic-AMP phosphodiesterase)
Assay: mouse skin phosphodiesterase (PDE) inhibition test
Format: biochemical
Set-up: key to Mouse Skin Phosphodiesterase: Active: A compound is considered active if it inhibits more than theophylline, that is, to 50% of control at 1 mM concentration of compound, or to 80% of control of 0.05 mM concentration of compound
Settings: for Mouse Skin Phosphodiesterase: hairless mouse epidermal PDE, 3H-cyclic AMP substrate, final concentration of test compounds 10 ug./ml

| Mouse Skin Phosphodiesterase | SMILES | inhibition of skin phosphodiesterase, % of control (0.05 mM concentration of compound) | inhibition of skin phosphodiesterase, % of control (1 mM concentration of compound) |
| --- | --- | --- | --- |
| Active | CCCc1n[nH]c(=O)c2nccn12 [5-n-propyl-imidazo[1,2-d]-as-triazin-8(7H)-one] | – | – |
| Active | O=c1[nH]nc(-c2ccccc2)n2ccnc12 [5-phenyl-imidazo[1,2-d]-as-triazin-8(7H)-one] | – | – |
| – | Cn1c(=O)c2[nH]cnc2n(C)c1=O [theophylline] | 80 % of control | 50 % of control |

— patent US4096257A, “Substituted imidazo [1,2-d]-as-triazines” (American Cyanamid Company, priority 1977, dated 1978)
